In patent US9340521B2, “Method for dual inhibition of SGLT1 and SGLT2 using diphenylmethane derivatives” (GREEN CROSS CORPORATION, priority 2013, dated 2016):

How the values were obtained:
Human SGLT1 (hSGLT1) = Human SGLT1 (hSGLT1) (Homo sapiens (Human), UniProt P13866); experiment: Inhibitory effects on human SGLT1 activities (14C-AMG uptake, sodium-dependent glucose transport assay); type: cell-based; conditions: 37° C. for 2 h, single determinations
Description: Test 3: Inhibitory Effects on Human SGLT1 Activities
(§1) For sodium-dependent glucose transport assay, cells expressing […] were seeded into a 96-well culture plate at a density of 5×10^4 cells/well in RPMI medium 1640 containing 10% fetal bovine serum. The cells were used 1 day after plating. They were incubated in pretreatment buffer (10 mM HEPES, 5 mM Tris, 140 mM choline chloride, 2 mM KCl, 1 mM CaCl2, and 1 mM MgCl2, pH 7.4) at 37° C. for 10 min. They were then incubated in uptake buffer (10 mM HEPES, 5 mM Tris, 140 mM NaCl, 2 mM KCl, 1 mM CaCl2, 1 mM MgCl2, and 1 mM ^14C-nonlabeled AMG pH 7.4) containing ^14C-labeled (8 μM) and inhibitor or dimethyl sulfoxide (DMSO) vehicle at 37° C. for 2 h. Cells were washed twice with washing buffer (pretreatment buffer containing 10 mM AMG at room temperature) and then the radioactivity was measured using a liquid scintillation counter. IC50 was determined by nonlinear regression analysis using GraphPad PRISM.

Human SGLT2 (hSGLT2) = Human SGLT2 (hSGLT2) (Homo sapiens (Human), UniProt P31639); experiment: Inhibitory effects on human SGLT2 activities (14C-AMG uptake, sodium-dependent glucose transport assay); type: cell-based; conditions: hSGLT2-expressing CHO cells, 37° C. for 2 h, single determinations
From the text: Test 1: Cloning and Cell Line Construction for Human SGLT2
Human SGLT2 (hSGLT2) gene was amplified by PCR from cDNA-Human Adult Normal Tissue Kidney (Invitrogen). The hSGLT2 sequence was cloned into pcDNA3.1(+) for mammalian expression and stably transfected into chinese hamster ovary (CHO) cells. SGLT2-expressing clones were selected based on resistance to G418 antibiotic (Geneticin) and activity in the ^14C-α-methyl-D-glucopyranoside (^14C-AMG) uptake assay.
Test 2: Inhibitory Effects on Human SGLT2 Activities
as §1, with “^14C-labeled AMG” for “^14C-labeled”, “the inventive compound” for “inhibitor”, “PRISM [Katsuno, K. et al. J. Pharmacol. Exp. Ther. 2007, 320, 323-330; Han, S. et al. Diabetes, 2008, 57, 1723-1729].” for “PRISM.”

Sequence of Human SGLT2 (hSGLT2) (P31639 whole entry): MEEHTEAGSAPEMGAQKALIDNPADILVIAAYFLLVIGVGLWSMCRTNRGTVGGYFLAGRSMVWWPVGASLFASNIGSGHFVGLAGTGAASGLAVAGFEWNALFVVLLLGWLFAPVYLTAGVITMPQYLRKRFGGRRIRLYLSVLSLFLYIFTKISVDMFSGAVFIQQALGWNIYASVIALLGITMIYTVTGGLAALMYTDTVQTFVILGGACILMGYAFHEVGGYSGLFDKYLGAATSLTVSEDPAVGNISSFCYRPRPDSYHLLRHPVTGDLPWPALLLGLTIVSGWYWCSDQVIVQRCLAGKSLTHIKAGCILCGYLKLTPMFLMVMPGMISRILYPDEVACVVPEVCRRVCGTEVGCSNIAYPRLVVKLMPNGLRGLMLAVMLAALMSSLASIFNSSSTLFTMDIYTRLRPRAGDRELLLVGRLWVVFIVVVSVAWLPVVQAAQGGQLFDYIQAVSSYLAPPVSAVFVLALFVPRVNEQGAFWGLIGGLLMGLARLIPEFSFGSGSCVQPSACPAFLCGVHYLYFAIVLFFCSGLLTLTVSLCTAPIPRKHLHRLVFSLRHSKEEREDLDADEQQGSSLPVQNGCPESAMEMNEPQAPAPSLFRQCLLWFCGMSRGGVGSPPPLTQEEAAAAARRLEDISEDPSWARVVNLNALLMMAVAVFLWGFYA
Sequence of Human SGLT1 (hSGLT1) (P13866 whole entry): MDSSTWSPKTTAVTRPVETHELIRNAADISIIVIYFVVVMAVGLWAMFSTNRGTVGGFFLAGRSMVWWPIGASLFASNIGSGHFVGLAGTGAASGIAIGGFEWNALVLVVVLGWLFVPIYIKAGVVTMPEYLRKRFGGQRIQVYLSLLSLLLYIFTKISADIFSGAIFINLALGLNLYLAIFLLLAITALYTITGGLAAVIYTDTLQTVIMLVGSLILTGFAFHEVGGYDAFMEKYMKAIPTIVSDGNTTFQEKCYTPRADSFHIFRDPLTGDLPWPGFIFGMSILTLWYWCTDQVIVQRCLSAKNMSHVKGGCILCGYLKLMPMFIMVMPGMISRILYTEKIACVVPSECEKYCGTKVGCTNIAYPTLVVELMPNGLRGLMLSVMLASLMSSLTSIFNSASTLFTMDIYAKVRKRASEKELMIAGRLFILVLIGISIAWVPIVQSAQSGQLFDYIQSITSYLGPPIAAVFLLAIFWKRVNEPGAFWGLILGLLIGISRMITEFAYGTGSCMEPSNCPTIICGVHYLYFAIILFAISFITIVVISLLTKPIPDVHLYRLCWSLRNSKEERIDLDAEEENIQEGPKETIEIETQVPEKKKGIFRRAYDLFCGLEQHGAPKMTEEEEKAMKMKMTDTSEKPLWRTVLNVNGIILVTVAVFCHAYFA

| IC50 (Human SGLT1 (hSGLT1)) [nM] | IC50 (Human SGLT2 (hSGLT2)) [nM] | SMILES |
| --- | --- | --- |
| 10.4 | 0.59 | CCc1ccc(Cc2cc([C@@H]3O[C@H](CO)[C@@H](O)[C@H](O)[C@H]3O)c3c(c2C)CCCC3)cc1 [Compound E044, (2S,3R,4R,5S,6R)-2-(3-(4-Ethylbenzyl)-4-methyl-5,6,7,8-tetrahydronaphthalen-1-yl)-6-(hydroxymethyl)tetrahydro-2H-pyran-3,4,5-triol] |
| 36.7 | 1.9 | Cc1ccc(Cc2cc([C@@H]3O[C@H](CO)[C@@H](O)[C@H](O)[C@H]3O)c3c(c2Cl)OCCC3)cc1 [Compound E045, (2S,3R,4R,5S,6R)-2-(8-Chloro-7-(4-methylbenzyl)chroman-5-yl)-6-(hydroxymethyl)tetrahydro-2H-pyran-3,4,5-triol] |
| 29.9 | 1.4 | Cc1ccc(Cc2cc([C@@H]3O[C@H](CO)[C@@H](O)[C@H](O)[C@H]3O)c3c(c2Cl)CCO3)cc1 [Compound E046, (2S,3R,4R,5S,6R)-2-(4-Chloro-5-(4-methylbenzyl)-2,3-dihydrobenzofuran-7-yl)-6-(hydroxymethyl)tetrahydro-2H-pyran-3,4,5-triol] |
| 27.1 | 1.3 | CCOc1ccc(Cc2cc([C@@H]3O[C@H](CO)[C@@H](O)[C@H](O)[C@H]3O)c3c(c2C)CCCC3)cc1 [Compound E047, (2S,3R,4R,5S,6R)-2-(3-(4-Ethoxybenzyl)-4-methyl-5,6,7,8-tetrahydronaphthalen-1-yl)-6-(hydroxymethyl)tetrahydro-2H-pyran-3,4,5-triol] |
| 33.7 | 0.5 | COc1ccc(Cc2cc([C@@H]3O[C@H](SC)[C@@H](O)[C@H](O)[C@H]3O)c3c(c2Cl)CCC3)cc1 [Compound E048, (2S,3R,4R,5S,6R)-2-(7-Chloro-6-(4-methoxybenzyl)-2,3-dihydro-1H-inden-4-yl)-6-(methylthio)tetrahydro-2H-pyran-3,4,5-triol] |
| 50.3 | 0.8 | CSc1ccc(Cc2cc([C@@H]3O[C@H](CO)[C@@H](O)[C@H](O)[C@H]3O)c3c(c2Cl)OCO3)cc1 [Compound E049, (2S,3R,4R,5S,6R)-2-(7-Chloro-6-(4-(methylthio)benzyl)benzo[d][1,3]dioxol-4-yl)-6-(hydroxymethyl)tetrahydro-2H-pyran-3,4,5-triol] |
| 23.2 | 0.85 | CSc1ccc(Cc2cc([C@@H]3O[C@H](CO)[C@@H](O)[C@H](O)[C@H]3O)c3c(c2Cl)OCCO3)cc1 [Compound E050, (2S,3R,4R,5S,6R)-2-(8-Chloro-7-(4-(methylthio)benzyl)-2,3-dihydrobenzo[b][1,4]dioxin-5-yl)-6-(hydroxymethyl)tetrahydro-2H-pyran-3,4,5-triol] |
| 62.4 | 0.49 | CCOc1ccc(Cc2cc([C@@H]3O[C@H](SC)[C@@H](O)[C@H](O)[C@H]3O)c3c(c2Cl)OCO3)cc1 [Compound E051, (2S,3R,4R,5S,6R)-2-(7-Chloro-6-(4-ethoxybenzyl)benzo[d][1,3]dioxol-4-yl)-6-(methylthio)tetrahydro-2H-pyran-3,4,5-triol] |
| 9.2 | 1.1 | Cc1ccc(Cc2cc([C@@H]3O[C@H](CO)[C@@H](O)[C@H](O)[C@H]3O)c3c(c2Cl)CCCO3)cc1 [Compound E052, (2S,3R,4R,5S,6R)-2-(5-Chloro-6-(4-methylbenzyl)chroman-8-yl)-6-(hydroxymethyl)tetrahydro-2H-pyran-3,4,5-triol] |
| 41 | 1.5 | OC[C@H]1O[C@@H](c2cc(Cc3cc4ccccc4s3)c(Cl)c3c2OCO3)[C@H](O)[C@@H](O)[C@@H]1O [Compound E053, (2S,3R,4R,5S,6R)-2-(6-(Benzo[b]thiophen-2-ylmethyl)-7-chlorobenzo[d][1,3]dioxol-4-yl)-6-(hydroxymethyl)tetrahydro-2H-pyran-3,4,5-triol] |
| 125 | 1.1 | OC[C@H]1O[C@@H](c2cc(Cc3ccc(-c4ccc(F)cc4)s3)c(Cl)c3c2OCCO3)[C@H](O)[C@@H](O)[C@@H]1O [Compound E054, (2S,3R,4R,5S,6R)-2-(8-Chloro-7-((5-(4-fluorophenyl)thiophen-2-yl)methyl)-2,3-dihydrobenzo[b][1,4]dioxin-5-yl)-6-(hydroxymethyl)tetrahydro-2H-pyran-3,4,5-triol] |
| 148 | 1.4 | OC[C@H]1O[C@@H](c2cc(Cc3cc4ccccc4s3)c(Cl)c3c2CCO3)[C@H](O)[C@@H](O)[C@@H]1O [Compound E055, (2S,3R,4R,5S,6R)-2-(6-(Benzo[b]thiophen-2-ylmethyl)-7-chloro-2,3-dihydrobenzofuran-4-yl)-6-(hydroxymethyl)tetrahydro-2H-pyran-3,4,5-triol] |
| 14 | 2.2 | OC[C@H]1O[C@@H](c2cc(Cc3cc4ccccc4s3)c(Cl)c3c2OCCO3)[C@H](O)[C@@H](O)[C@@H]1O [Compound E056, (2S,3R,4R,5S,6R)-2-(7-(Benzo[b]thiophen-2-ylmethyl)-8-chloro-2,3-dihydrobenzo[b][1,4]dioxin-5-yl)-6-(hydroxymethyl)tetrahydro-2H-pyran-3,4,5-triol] |
| 11 | 0.86 | CCc1ccc(Cc2cc([C@@H]3O[C@H](CO)[C@@H](O)[C@H](O)[C@H]3O)c3c(c2Br)CCCC3)cc1 [Compound E057, (2S,3R,4R,5S,6R)-2-(4-Bromo-3-(4-ethylbenzyl)-5,6,7,8-tetrahydronaphthalen-1-yl)-6-(hydroxymethyl)tetrahydro-2H-pyran-3,4,5-triol] |
| 17.1 | 0.87 | CCOc1ccc(Cc2cc([C@@H]3O[C@H](CO)[C@@H](O)[C@H](O)[C@H]3O)c3c(c2Br)CCCC3)cc1 [Compound E058, (2S,3R,4R,5S,6R)-2-(4-Bromo-3-(4-ethoxybenzyl)-5,6,7,8-tetrahydronaphthalen-1-yl)-6-(hydroxymethyl)tetrahydro-2H-pyran-3,4,5-triol] |
| 95.1 | 1.1 | CCOc1ccc(Cc2cc([C@@H]3O[C@H](CO)[C@@H](O)[C@H](O)[C@H]3O)c3c(c2Cl)SCC3)cc1 [Compound E059, (2S,3R,4R,5S,6R)-2-(7-Chloro-6-(4-ethoxybenzyl)-2,3-dihydrobenzo[b]thiophen-4-yl)-6-(hydroxymethyl)tetrahydro-2H-pyran-3,4,5-triol] |
| 40.9 | 0.67 | OC[C@H]1O[C@@H](c2cc(Cc3ccc(C4CC4)cc3)c(Cl)c3c2CCS3)[C@H](O)[C@@H](O)[C@@H]1O [Compound E060, (2S,3R,4R,5S,6R)-2-(7-Chloro-6-(4-cyclopropylbenzyl)-2,3-dihydrobenzo[b]thiophen-4-yl)-6-(hydroxymethyl)tetrahydro-2H-pyran-3,4,5-triol] |
| 27 | 1.7 | Cc1ccc(Cc2cc([C@@H]3O[C@H](CO)[C@@H](O)[C@H](O)[C@H]3O)c3c(c2C)OCO3)cc1 [Compound E061, (2R,3S,4R,5R,6S)-2-(Hydroxymethyl)-6-(7-methyl-6-(4-methylbenzyl)benzo[d][1,3]dioxol-4-yl)tetrahydro-2H-pyran-3,4,5-triol] |
| 163 | 1.1 | OC[C@H]1O[C@@H](c2cc(Cc3ccc(C4CCC4)cc3)c(Cl)c3c2OCCC3)[C@H](O)[C@@H](O)[C@@H]1O [Compound E062, (2S,3R,4R,5S,6R)-2-(5-Chloro-6-(4-cyclobutylbenzyl)chroman-8-yl)-6-(hydroxymethyl)tetrahydro-2H-pyran-3,4,5-triol] |
